Measurements taken from patent US6723897B2, “Methods for controlling gibberellin levels” (Monsanto Technology, LLC, priority 1998, dated 2004).

Experiments:
Format in all cases: in vivo, Glycine max
[1] = test system: constitutively GA-deficient transgenic dwarf soybean line 719; test: Experiment I greenhouse test, seed imbibition, GA-deficient soybean; set-up: Observation on Transgenic Line 719: key: −1: treated plants are shorter as compared to untreated plants; 0: treated plants had the same stature as untreated plants; 1: treated plants are slightly elongated as compared to untreated plants; 2: treated plants are moderately elongated as compared to untreated plants; 3: treated plants are highly elongated as compared to untreated plants; 4: treated plants are extremely elongated as compared to untreated plants; conditions: 0.25 mg/ml; for effect in both the constitutive transgenic dwarf and wild-type soybean lines: imbibition, lines 719 and A3237; for Observation on Transgenic Line 719: seeds imbibed 5 hours
Text: Seeds are covered with 0.5″ of vermiculite.

[2] = test system: constitutively GA-deficient transgenic dwarf soybeans (line 719); test: Summary of first two greenhouse experiments, rescue of GA-deficient soybeans; set-up: key: +: transgenic soybeans are rescued; 0: transgenic soybeans are not rescued
Procedure: Compounds are first prepared as 25 mg/ml solutions in ethanol as described above, and then diluted into 40 ml of water to prepare the final 0.25 mg/ml treatment solutions. Visual observations on solubilities (milky, clear, etc.) of the treatment solutions are noted. The treatment solutions are divided into two 20 ml portions, each in 50 ml plastic centrifuge tubes. In addition to treating seeds with solutions containing the test compounds, untreated seeds and seeds imbibed in ethanol-water solution (300 μl ethanol in 30 mls of water) are also included in this experiment as controls. In the latter case, 20 seeds are imbibed in 30 mls of solution for six hours.
Two soybean varieties are selected for testing: constitutively GA-deficient transgenic dwarf soybean line 719 (plasmid pMON29801, constitutive FMV promoter/asCPScc; which is a mixture of 719−2 and 719+17), and A3237, the wild-type parent material. […] After imbibition, seeds are removed from the test tubes, placed on wax paper to dry, and planted in bread pans containing farm soil amended with fertilizer at 20 seeds/pan. Seeds are covered with 0.5″ of vermiculite. Pans are transferred to the greenhouse, which had day/night temperatures of 86/68° F. (30/20° C.), and subirrigated. Illumination is at a light intensity of 300-400 μmolm^−2s^−1 photosynthetic photon flux; 16 hours light/8 hours dark. Subsequent waterings are also through sub-irrigation until the test is terminated three weeks later. Observations included the number of dwarf, intermediate, and tall plants; plant height; uniformity of rescue; and any visual effects.
All compounds are tested at final concentrations of 0.25, 0.025, and 0.0025 mg/ml except for GA9, which is tested at 0.125, 0.0125, and 0.00125 mg/ml. (The compounds are tested in Experiment I at only one concentration, i.e., 0.25 mg/ml). Test tubes contained […] of ethanol solution per tube. Final volumes are made up to 30 ml with deionized water. After shaking, the treatment solutions (15 ml each) are transferred to each of two 50 ml test tubes. Treatments 1 to 27 are performed on wild-type line A3237; treatments 28 to 54 are performed on constitutively GA-deficient transgenic dwarf soybean line 719 (a mixture of 719−2 and 719+17). Twenty seeds are used in each treatment. Dry seed, ethanol/water-imbibed seed (1% ethanol in water, v/v), and water-imbibed seeds are included as controls. Seeds are imbibed for 6 hours in the test solutions, then planted in bread pans containing Metromix 350 (The Scotts Company, Marysville, Ohio), and covered with 0.5″ Metro-mix. Covered pans are transferred to the greenhouse and subirrigated. Illumination is at a light intensity of 300-400 μmolm^−2s^−1 photosynthetic photon flux; 16 hours light/8 hours dark. Subsequent waterings are also through sub-irrigation until the test is terminated three weeks later. Observations included the number of dwarf, intermediate, and tall plants; plant height; uniformity of rescue; and any visual effects. Digital photographs are also taken.

[3] = test system: GA-deficient transgenic soybean line 719 (R5); test: Hilum treatment of soybean seeds, seedling growth and development, GA-deficient soybean; set-up: key to Emergence timing / Hypocotyl length (6 DAP) / 1st internode length (12 DAP) / 3rd internode length (20 DAP) / 2nd internode length (12 DAP): pos: emergence faster/stem segment longer than controls; 0: emergence timing/stem segment length similar to controls; neg: emergence slower/stem segment shorter than controls; conditions: for 1st internode length (12 DAP) / Emergence timing / Hypocotyl length (6 DAP): single rate per compound 8.3-16.5 μg/seed; for 2nd internode length (12 DAP) / 3rd internode length (20 DAP): single rate per compound 9.7-16.5 μg/seed; for stem elongation past the first internode: initial seed dose approximately 10 μg/seed
Procedure: (§1) In the previous experiments, the effect of various GA compounds on transgenic, GA-deficient and wild-type soybean is evaluated by treating seeds with these compounds via imbibition. Several of these compounds are not completely soluble in water, which limited the interpretation of their utility in rescuing GA-deficient dwarf plants. The purpose of this experiment is to reevaluate selected, previously tested compounds, and additional compounds, by introducing them to the seed via the hilum. As shown by the results presented below, direct application of small quantities of GA compounds dissolved in an organic solvent to the hilum is an effective method of treating soybean seeds. As in the previously described experiments, comparison is made between activity on GA-deficient soybean seedlings and normal (wild-type) seedlings. […] soybean seeds are supplied by Asgrow Seed Company (Des Moines, Iowa). Seed of GA-deficient transgenic soybean line 719 is created by transformation of […] soybean with pMON29801 (FMV/antisense CPScc). Fifth generation seed (R5) is used for these experiments. […] When multiple droplets are applied, each 1 μl droplet is allowed to dry before subsequent droplets are added. Ethanol minus compound is used a treatment control. […] (29° C.) and 75° F. (24° C.), respectively. Emergence timing is measured by counting the number of emerged seedlings at different times after planting. Emergence is defined as the presence of cotyledons raised to soil level or above. […] To assess the ability of a seed treatment to deliver biological activity beyond the first internode, measurements are taken on selected treatments after prolonged growth and development.

wild-type A3237 soybean = test: Hilum treatment of soybean seeds, seedling growth and development, wild-type soybean; set-up: key to Emergence timing / Hypocotyl length (6 DAP) / 1st internode length (12 DAP) / 3rd internode length (20 DAP): pos: emergence faster/stem segment longer than controls; 0: emergence timing/stem segment length similar to controls; neg: emergence slower/stem segment shorter than controls; conditions: for 1st internode length (12 DAP) / Emergence timing / Hypocotyl length (6 DAP): single rate per compound 8.3-16.5 μg/seed
Procedure: as §1

[4] = 0.0025 mg/ml solution (ethanol-water)
[5] = 0.025 mg/ml solution (ethanol-water)
[6] = 0.25 mg/ml solution (ethanol-water)
[7] = L719, hilum treatment, rate response

Row | SMILES | effect in both the constitutive transgenic dwarf and wild-type soybean lines [1] | Observation on Transgenic Line 719 [1] | Rescue of GA-deficient soybeans [2, 4] | Rescue of GA-deficient soybeans [2, 5] | Rescue of GA-deficient soybeans [2, 6] | Lowest rate where biological activity is observed, 1st internode length (10 DAP) [3, 7] [μg/seed] | Lowest rate where biological activity is observed, emergence timing [3, 7] [μg/seed] | Lowest rate where biological activity is observed, hypocotyl length (5 DAP) [3, 7] [μg/seed] | 1st internode length (12 DAP) ([3]; L719, hilum treatment) | Emergence timing ([3]; L719, hilum treatment) | Hypocotyl length (6 DAP) ([3]; L719, hilum treatment) | 2nd internode length (12 DAP) ([3]; L719, hilum treatment) | 3rd internode length (20 DAP) ([3]; L719, hilum treatment) | stem elongation past the first internode ([3]; hilum) | Lowest rate where biological activity is observed, 1st internode length (10 DAP) (wild-type A3237 soybean; rate response) [μg/seed] | Lowest rate where biological activity is observed, emergence timing (wild-type A3237 soybean; rate response) [μg/seed] | Lowest rate where biological activity is observed, hypocotyl length (5 DAP) (wild-type A3237 soybean; rate response) [μg/seed] | 1st internode length (12 DAP) (wild-type A3237 soybean) | Emergence timing (wild-type A3237 soybean) | Hypocotyl length (6 DAP) (wild-type A3237 soybean) | further results
1 | C=C1C[C@]23C[C@@]1(O)CC[C@H]2[C@@]12C=C[C@H](O)[C@@](C)(C(=O)O1)[C@H]2[C@@H]3C(=O)O [GA3, gibberellic acid] | excessive elongation | 3 | + | + | + | 10 | 0.1 | 0.1 | pos | pos | pos | 0 | 0 | not active beyond the first internode | 1 | 0.1 | 0.1 | 0 | pos | pos | 
2 | C=C1C[C@]23C[C@@]1(O)CC[C@H]2[C@@]12C=C[C@H](OC(C)=O)[C@@](C)(C(=O)O1)[C@H]2[C@@H]3C(=O)O [GA3-3-acetate] | excessive elongation | 3 | + | + | + |  |  |  | pos | pos | pos |  |  |  |  |  |  | 0 | pos | pos | 
3 | C=C1C[C@]23C[C@@]1(O)CC[C@H]2[C@@]12CC=C[C@@](C)(C(=O)O1)[C@H]2[C@@H]3C(=O)O [GA5] | excessive elongation | 4 | + | + | + | 1 | 1 | 0.1 | pos | pos | pos | pos | pos | measurable increases in internode length up to the third internode | 1 | 0.1 | 1 | pos | pos | pos | Lowest rate where biological activity is observed, 3rd internode length (20 DAP) [3, 7]: >1 μg/seed; rate giving increased internode elongation at internode number 3 ([3]; hilum): greater than or equal to 1 μg/seed; biological activity on the first internode of line 719 compared to GA3 and GA9 ([3]; hilum, rate response): approximately 10 times more; 3rd internode length (20 DAP) (wild-type A3237 soybean; rate 9.7 μg/seed): pos; Lowest rate where biological activity is observed, 3rd internode length (20 DAP) (wild-type A3237 soybean; rate response): 1 μg/seed
4 | C=C1C[C@]23C[C@H]1CC[C@H]2[C@@]12CCC[C@@](C)(C(=O)O1)[C@H]2[C@@H]3C(=O)O [GA9] | excessive elongation | 3 |  |  | + | 10 | 0.1 | 0.1 | pos | pos | pos | 0 | 0 |  | 1 | 0.1 | 1 | 0 | pos | pos | Rescue of GA-deficient soybeans ([2]; 0.00125 mg/ml solution (ethanol-water)): 0; Rescue of GA-deficient soybeans ([2]; 0.0125 mg/ml solution (ethanol-water)): +; Rescue of GA-deficient soybeans ([2]; 0.125 mg/ml solution (ethanol-water)): +
5 | C=C1C[C@]23C[C@H]1CC[C@H]2[C@]1(C)CCC[C@@](C)(C(=O)O)[C@H]1[C@@H]3C(=O)O [GA12] | rescue (elongated hypocotyls) with very little elongation | 1 | 0 | + | + |  |  |  | 0 | 0 | neg |  |  |  |  |  |  | 0 | neg | neg | effect on emergence timing and hypocotyl length ([3]; single rate, hilum): inhibited emergence timing and hypocotyl length
